Experimental data: article PMC8658016, “Identification of New Compounds with Anticonvulsant and Antinociceptive Properties in a Group of 3-substituted (2,5-dioxo-pyrrolidin-1-yl)(phenyl)-Acetamides” (International Journal of Molecular Sciences, 2021)
Like-named read-outs stand apart in the source and are kept apart here.

Experiments:
mice [1] = experiment: Psychomotor 6 Hz (32 mA) seizure test; type: in vivo, mouse; conditions: mice i.p.; for ED50: Mus musculus, ip, 95% confidence interval in parentheses; for 6 Hz (32 mA) screening: number of mice protected / number of mice tested / protection in the 6 Hz (32 mA) test: 100 mg/kg, 0.5 h
in vivo = conditions: male, CD-1, mouse, ip
mice [2] = experiment: Maximal electroshock seizure (MES) test; type: in vivo, mouse; conditions: mice i.p.; for ED50: Mus musculus, ip, 95% confidence interval in parentheses; for MES screening: number of mice protected / number of mice tested / protection in the MES test: 100 mg/kg, 0.5 h
mice [3] = experiment: Subcutaneous pentylenetetrazole (scPTZ) seizure test; type: in vivo, mouse; conditions: mice i.p.; for ED50: Mus musculus, ip, 95% confidence interval in parentheses; for protection in the scPTZ test / scPTZ screening: number of mice protected / number of mice tested: 100 mg/kg, 0.5 h
TRPV1 (VR1) (h) = target: T1, TRPV1 (VR1) (h) (Homo sapiens, UniProt Q8NER1); experiment: TRPV1 (VR1) functional assay, antagonist effect; type: cell-based; conditions: HEK293, human recombinant HEK-293 cells, read-out: % Inhibition of Control Agonist Response, TRPV1 (VR1) (h) (antagonist effect)
T1 construct: Cerep Laboratories / Eurofins Panlabs (contract assay)

[4] = test system: Cav1.2 channel (dihydropyridine site, antagonist radioligand); experiment: Radioligand binding, Cav1.2 channel (dihydropyridine site); conditions: rat cerebral cortex
[5] = test system: TTX-sensitive Na+ channel; experiment: Radioligand binding, TTX-sensitive Na+ channel; conditions: rat cerebral cortex
[6] = target: Cav1.2 (h) calcium ion channel (Homo sapiens, UniProt Q13936); experiment: Cav1.2 calcium ion channel cell based antagonist calcium flux assay; conditions: HEK293, read-out: % Inhibition of Control Agonist Response, Cav1.2 (h) calcium ion channel cell based antagonist calcium flux assay
mice [7] = conditions: mice i.p.; cited from earlier work
mice [8] = conditions: mice i.p.; cited from earlier work; remark: listed apart in the source
mice [9] = conditions: mice i.p.; cited from earlier work; remark: listed apart in the source
[10] = test system: fast voltage-gated sodium currents in rat prefrontal cortex pyramidal neurons; set-up: method as in PMID 33647745; conditions: 1 µM; p < 0.01, n = 5; cited from earlier work
mice [11] = conditions: mice i.p., cited from earlier work
mice [12] = test system: mice; set-up: method as in PMID 32929733; conditions: mice i.p.; cited from earlier work
mice [13] = test system: mice; set-up: method as in PMID 28934547; conditions: active only in a very high dose; cited from earlier work

T1 sequence (Q8NER1 whole entry): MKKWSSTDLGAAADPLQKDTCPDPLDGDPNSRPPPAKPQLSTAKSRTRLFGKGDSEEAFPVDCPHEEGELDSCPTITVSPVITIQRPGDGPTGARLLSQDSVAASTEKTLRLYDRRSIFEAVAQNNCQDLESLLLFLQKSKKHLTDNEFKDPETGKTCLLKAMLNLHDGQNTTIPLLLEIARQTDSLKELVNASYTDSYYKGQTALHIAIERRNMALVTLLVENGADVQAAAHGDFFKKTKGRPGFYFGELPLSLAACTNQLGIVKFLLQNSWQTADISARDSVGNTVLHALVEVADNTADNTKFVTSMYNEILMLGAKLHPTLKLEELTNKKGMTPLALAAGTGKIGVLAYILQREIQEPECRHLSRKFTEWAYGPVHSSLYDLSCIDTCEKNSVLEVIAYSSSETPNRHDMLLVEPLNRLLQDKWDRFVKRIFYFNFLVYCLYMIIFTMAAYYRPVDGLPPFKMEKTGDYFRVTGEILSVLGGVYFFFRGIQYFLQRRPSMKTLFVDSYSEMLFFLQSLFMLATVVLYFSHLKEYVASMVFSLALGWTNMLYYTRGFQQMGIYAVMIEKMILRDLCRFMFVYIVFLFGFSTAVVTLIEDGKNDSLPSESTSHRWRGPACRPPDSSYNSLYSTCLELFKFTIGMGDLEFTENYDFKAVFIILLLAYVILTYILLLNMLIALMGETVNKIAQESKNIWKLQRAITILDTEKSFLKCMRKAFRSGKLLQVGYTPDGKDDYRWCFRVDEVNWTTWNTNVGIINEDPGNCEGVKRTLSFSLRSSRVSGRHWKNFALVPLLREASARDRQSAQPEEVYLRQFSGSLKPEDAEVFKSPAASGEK
Sequence of Cav1.2 (h) calcium ion channel (Q13936 whole entry): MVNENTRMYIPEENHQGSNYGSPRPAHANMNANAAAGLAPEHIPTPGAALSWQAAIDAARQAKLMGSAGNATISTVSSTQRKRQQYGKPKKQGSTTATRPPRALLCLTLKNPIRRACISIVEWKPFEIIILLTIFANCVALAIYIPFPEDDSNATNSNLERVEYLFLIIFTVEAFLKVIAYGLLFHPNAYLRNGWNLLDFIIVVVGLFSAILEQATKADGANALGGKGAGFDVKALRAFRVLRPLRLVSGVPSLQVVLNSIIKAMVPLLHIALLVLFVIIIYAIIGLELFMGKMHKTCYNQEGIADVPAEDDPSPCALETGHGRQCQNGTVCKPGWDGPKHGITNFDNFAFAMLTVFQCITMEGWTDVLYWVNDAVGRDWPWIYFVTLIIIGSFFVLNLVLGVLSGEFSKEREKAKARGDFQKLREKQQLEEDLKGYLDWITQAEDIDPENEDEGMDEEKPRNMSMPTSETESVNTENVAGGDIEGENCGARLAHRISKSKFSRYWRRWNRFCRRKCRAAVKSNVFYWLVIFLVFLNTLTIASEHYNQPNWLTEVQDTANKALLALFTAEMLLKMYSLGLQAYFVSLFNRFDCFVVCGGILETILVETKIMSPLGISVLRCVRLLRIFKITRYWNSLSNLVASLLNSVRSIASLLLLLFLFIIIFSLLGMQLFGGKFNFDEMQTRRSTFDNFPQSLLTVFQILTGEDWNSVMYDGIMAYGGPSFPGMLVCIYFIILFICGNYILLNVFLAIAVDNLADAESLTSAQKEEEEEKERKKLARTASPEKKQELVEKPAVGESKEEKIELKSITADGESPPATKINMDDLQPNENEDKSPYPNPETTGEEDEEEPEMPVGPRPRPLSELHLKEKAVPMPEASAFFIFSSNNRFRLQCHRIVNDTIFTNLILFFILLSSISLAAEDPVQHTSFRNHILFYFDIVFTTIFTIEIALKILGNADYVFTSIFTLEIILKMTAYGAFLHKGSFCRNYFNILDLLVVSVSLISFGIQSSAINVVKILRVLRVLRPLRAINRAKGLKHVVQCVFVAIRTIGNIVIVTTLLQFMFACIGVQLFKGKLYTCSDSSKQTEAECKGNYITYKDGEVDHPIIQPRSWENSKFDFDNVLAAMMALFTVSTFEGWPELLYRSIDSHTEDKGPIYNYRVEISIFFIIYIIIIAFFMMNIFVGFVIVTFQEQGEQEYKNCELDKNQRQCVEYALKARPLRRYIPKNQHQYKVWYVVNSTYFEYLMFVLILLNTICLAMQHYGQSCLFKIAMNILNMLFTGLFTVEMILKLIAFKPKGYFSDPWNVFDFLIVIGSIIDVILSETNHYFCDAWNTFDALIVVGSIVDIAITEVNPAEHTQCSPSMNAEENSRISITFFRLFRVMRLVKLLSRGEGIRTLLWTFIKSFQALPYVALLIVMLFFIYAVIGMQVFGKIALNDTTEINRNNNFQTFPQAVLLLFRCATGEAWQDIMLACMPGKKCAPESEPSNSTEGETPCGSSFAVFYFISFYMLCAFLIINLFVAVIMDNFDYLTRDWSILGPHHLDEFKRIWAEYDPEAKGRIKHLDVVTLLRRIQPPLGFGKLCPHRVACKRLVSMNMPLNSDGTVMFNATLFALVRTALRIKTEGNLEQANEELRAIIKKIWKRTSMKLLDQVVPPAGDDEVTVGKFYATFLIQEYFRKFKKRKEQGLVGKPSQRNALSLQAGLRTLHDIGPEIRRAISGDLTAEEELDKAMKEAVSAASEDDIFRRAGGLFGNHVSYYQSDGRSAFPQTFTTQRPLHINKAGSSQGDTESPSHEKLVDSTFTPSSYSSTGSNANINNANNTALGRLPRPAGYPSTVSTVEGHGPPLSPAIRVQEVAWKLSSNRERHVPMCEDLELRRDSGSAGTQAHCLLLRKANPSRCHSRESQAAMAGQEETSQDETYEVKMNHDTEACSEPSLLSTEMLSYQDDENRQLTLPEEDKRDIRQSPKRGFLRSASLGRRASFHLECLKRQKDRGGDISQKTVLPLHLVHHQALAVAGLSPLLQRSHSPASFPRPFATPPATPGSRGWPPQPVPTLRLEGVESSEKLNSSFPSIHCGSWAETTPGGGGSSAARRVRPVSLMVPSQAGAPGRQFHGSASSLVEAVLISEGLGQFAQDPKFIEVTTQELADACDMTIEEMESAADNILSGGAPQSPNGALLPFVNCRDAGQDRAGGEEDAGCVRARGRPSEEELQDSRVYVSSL
Sequence of Cav1.2 (h) calcium ion channel (Q08289 whole entry partner): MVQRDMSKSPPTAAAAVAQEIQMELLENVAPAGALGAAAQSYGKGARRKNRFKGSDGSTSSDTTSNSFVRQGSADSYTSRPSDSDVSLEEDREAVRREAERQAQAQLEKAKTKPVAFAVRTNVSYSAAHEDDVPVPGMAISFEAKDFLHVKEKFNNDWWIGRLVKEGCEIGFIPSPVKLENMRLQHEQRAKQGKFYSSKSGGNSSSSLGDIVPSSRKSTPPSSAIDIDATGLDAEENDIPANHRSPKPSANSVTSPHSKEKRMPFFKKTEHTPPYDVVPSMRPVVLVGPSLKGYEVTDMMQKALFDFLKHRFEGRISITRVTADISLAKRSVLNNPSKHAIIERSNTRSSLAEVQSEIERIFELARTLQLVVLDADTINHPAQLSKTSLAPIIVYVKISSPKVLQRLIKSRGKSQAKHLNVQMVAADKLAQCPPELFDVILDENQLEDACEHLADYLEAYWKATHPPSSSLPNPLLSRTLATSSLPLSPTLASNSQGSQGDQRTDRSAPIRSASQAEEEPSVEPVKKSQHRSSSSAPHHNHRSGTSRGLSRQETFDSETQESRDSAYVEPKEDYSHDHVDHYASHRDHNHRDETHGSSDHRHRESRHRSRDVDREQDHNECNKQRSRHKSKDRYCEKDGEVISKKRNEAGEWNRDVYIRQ
Sequence of Cav1.2 (h) calcium ion channel (P54289 25-956 partner limits assumed): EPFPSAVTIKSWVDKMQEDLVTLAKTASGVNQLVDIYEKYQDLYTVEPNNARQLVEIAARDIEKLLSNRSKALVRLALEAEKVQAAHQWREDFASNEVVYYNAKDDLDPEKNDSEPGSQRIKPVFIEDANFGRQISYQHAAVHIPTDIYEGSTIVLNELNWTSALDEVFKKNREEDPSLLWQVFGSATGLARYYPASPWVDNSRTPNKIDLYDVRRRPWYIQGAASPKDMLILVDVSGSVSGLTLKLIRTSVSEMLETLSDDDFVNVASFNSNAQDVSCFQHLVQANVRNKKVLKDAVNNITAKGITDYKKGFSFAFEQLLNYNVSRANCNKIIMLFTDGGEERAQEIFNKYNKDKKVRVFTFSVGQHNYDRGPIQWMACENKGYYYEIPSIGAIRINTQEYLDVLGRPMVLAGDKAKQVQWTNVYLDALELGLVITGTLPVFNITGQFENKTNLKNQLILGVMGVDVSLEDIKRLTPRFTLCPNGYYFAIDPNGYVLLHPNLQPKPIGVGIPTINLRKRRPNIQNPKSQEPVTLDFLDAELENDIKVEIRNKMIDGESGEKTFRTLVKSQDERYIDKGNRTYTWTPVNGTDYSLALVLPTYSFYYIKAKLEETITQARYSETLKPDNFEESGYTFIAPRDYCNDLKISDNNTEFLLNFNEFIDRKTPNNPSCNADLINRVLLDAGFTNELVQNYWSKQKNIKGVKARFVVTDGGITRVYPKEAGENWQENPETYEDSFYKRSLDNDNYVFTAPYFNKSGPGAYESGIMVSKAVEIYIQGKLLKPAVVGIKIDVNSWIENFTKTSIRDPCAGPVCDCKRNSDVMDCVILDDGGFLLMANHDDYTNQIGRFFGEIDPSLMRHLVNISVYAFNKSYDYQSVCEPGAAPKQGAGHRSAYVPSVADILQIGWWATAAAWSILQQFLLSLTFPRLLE
Sequence of Cav1.2 (h) calcium ion channel (P54289 957-1103 partner limits assumed): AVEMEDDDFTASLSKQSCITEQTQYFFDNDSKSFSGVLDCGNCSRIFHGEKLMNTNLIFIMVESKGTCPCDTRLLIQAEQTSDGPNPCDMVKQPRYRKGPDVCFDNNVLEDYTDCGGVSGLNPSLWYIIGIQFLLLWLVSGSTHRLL

Row | Structure (SMILES) | ED50 (mice [1]) [mg/kg] | 6 Hz (32 mA) screening: number of mice protected / number of mice tested (mice [1]) | protection in the 6 Hz (32 mA) test (mice [1]) [%] | TD50 (in vivo) [mg/kg] | ED50 (mice [2]) [mg/kg] | MES screening: number of mice protected / number of mice tested (mice [2]) | melting point [°C] | ED50 (mice [3]) [mg/kg] | scPTZ screening: number of mice protected / number of mice tested (mice [3]) | also measured
1 | CN(C)C1CC(=O)N([C@@H](C(=O)N2CCN(c3cccc(C(F)(F)F)c3)CC2)c2ccccc2)C1=O.Cl (stereo partly drawn) [(C1-R)-31, 3-Dimethylamino-1-((R)-oxo-1-phenyl-2-(4-(3-(trifluoromethyl)phenyl)-piperazin-1-yl)ethyl)pyrrolidine-2,5-dione hydrochloride] | 50.9 | 3/4 | 75 | 94.9 | 57.7 | 4/4 | 169.8 to 170.6 | 65.5 | 3/4 | protection in the MES test (mice [2]): 100%; protection in the scPTZ test (mice [3]): 75%
2 | CN(C)C1CC(=O)N([C@@H](C(=O)N2CCN(c3cccc(OC(F)(F)F)c3)CC2)c2ccccc2)C1=O.Cl (stereo partly drawn) [(C1-R)-32, 3-Dimethylamino-1-((R)-2-oxo-1-phenyl-2-(4-(3-(trifluoromethoxy)phenyl)piperazin-1-yl)ethyl)pyrrolidine-2,5-dione hydrochloride] | 28.3 | 3/4 | 75 | 72 | 26.3 | 4/4 | 164.8 to 165.7 | 44.9 | 3/4 | inhibition at 10 µM (TRPV1 (VR1) (h); 10 µM): 8.5%; inhibition at 50 µM (TRPV1 (VR1) (h); 50 µM): 44.6%; protection in the MES test (mice [2]): 100%; % Inhibition of Control-Specific Binding, Cav1.2 channel (dihydropyridine site, antagonist radioligand) ([4]; 10 µM): 18.6%; % Inhibition of Control-Specific Binding, Cav1.2 channel (dihydropyridine site, antagonist radioligand) ([4]; 50 µM): 88.9%; % Inhibition of Control-Specific Binding, TTX-sensitive Na+ channel ([5]; 10 µM): 33.4%; % Inhibition of Control-Specific Binding, TTX-sensitive Na+ channel ([5]; 50 µM): 101.9%; inhibition at 10 µM [6]: 38%; protection in the scPTZ test (mice [3]): 75%
3 | CN(C)C1CC(=O)N([C@@H](C(=O)N2CCN(c3cccc(SC(F)(F)F)c3)CC2)c2ccccc2)C1=O.Cl (stereo partly drawn) [(C1-R)-33, 3-Dimethylamino-1-((R)-2-oxo-1-phenyl-2-(4-(3-((trifluoromethyl)thio)phenyl)piperazin-1-yl)ethyl)pyrrolidine-2,5-dione hydrochloride] | – | 1/4 | – | – | – | 1/4 | 173.2 to 174.7 | – | 1/4 | –
4 | CN(C)C1CC(=O)N([C@H](C(=O)N2CCN(c3cccc(C(F)(F)F)c3)CC2)c2ccccc2)C1=O.Cl (stereo partly drawn) [(C1-S)-31, 3-Dimethylamino-1-((S)-oxo-1-phenyl-2-(4-(3-(trifluoromethyl)phenyl)-piperazin-1-yl)ethyl)pyrrolidine-2,5-dione hydrochloride] | > 130 | 2/4 | – | 188 | – | 1/4 | 169.2 to 170.8 | – | 1/4 | –
5 | CNC1CC(=O)N(C(C(=O)N2CCN(c3cccc(C(F)(F)F)c3)CC2)c2ccccc2)C1=O.Cl (stereo not drawn) [Compound 13, 3-(Methylamino)-1-(2-oxo-1-phenyl-2-(4-(3-(trifluoromethyl)phenyl)piperazin-1-yl)ethyl)pyrrolidine-2,5-dione hydrochloride] | 93.6 | 2/4 | 50 | – | – | 1/4 | 161.2 to 163.4 | 85.6 | 2/4 | –
6 | CCN(CC)C1CC(=O)N(C(C(=O)N2CCN(c3cccc(C(F)(F)F)c3)CC2)c2ccccc2)C1=O.Cl (stereo not drawn) [Compound 15, 3-(Diethylamino)-1-(2-oxo-1-phenyl-2-(4-(3-(trifluoromethyl)phenyl)piperazin-1-yl)ethyl)pyrrolidine-2,5-dione hydrochloride] | 80.4 | 3/4 | 75 | 247 | 77.5 | 4/4 | 142.2 to 143.1 | – | 1/4 | protection in the MES test (mice [2]): 100%
7 | Cl.O=C(C(c1ccccc1)N1C(=O)CC(N2CCOCC2)C1=O)N1CCN(c2cccc(C(F)(F)F)c2)CC1 (stereo not drawn) [Compound 16, 3-Morpholino-1-(2-oxo-1-phenyl-2-(4-(3-(trifluoromethyl)phenyl)piperazin-1-yl)ethyl)pyrrolidine-2,5-dione hydrochloride] | – | 0/4 | – | – | – | 0/4 | 146.2 to 147.5 | – | 1/4 | –
8 | CN(C)C1CC(=O)N(C(C(=O)N2CCN(c3cccc(OC(F)(F)F)c3)CC2)c2ccccc2)C1=O.Cl (stereo not drawn) [Compound 17, 3-Dimethylamino-1-(2-oxo-1-phenyl-2-(4-(3-(trifluoromethoxy)phenyl)piperazin-1-yl)ethyl)pyrrolidine-2,5-dione hydrochloride] | 28.2 | 2/4 | 50 | 69.7 | 33.3 | 3/4 | 152.3 to 153.5 | 31.3 | 3/4 | protection in the MES test (mice [2]): at least 75%; protection in the scPTZ test (mice [3]): 75%
9 | CN(C)C1CC(=O)N(C(C(=O)N2CCN(c3cccc(SC(F)(F)F)c3)CC2)c2ccccc2)C1=O.Cl (stereo not drawn) [Compound 18, 3-Dimethylamino-1-(2-oxo-1-phenyl-2-(4-(3-((trifluoromethyl)thio)phenyl)piperazin-1-yl)ethyl)pyrrolidine-2,5-dione hydrochloride] | – | 1/4 | – | – | – | 1/4 | 170.1 to 171.5 | – | 1/4 | –
10 | CCC1(C)CC(=O)NC1=O (stereo not drawn) [ETX, ethosuximide, reference compound] | > 200 | – | – | – | – | – | – | 140 | – | –
11 | O=C([C@@H](c1ccccc1)N1C(=O)CCC1=O)N1CCN(c2cccc(C(F)(F)F)c2)CC1 [II] | – | – | – | – | – | – | – | – | – | ED50 scPTZ (mice [7]): 54.8 (43.5–69.1) mg/kg; ED50 6 Hz (32 mA) (mice [8]): 39.2 (31.6–48.6) mg/kg; ED50 MES (mice [9]): 36.0 (31.4–41.2) mg/kg; maximal sodium current amplitude normalized to control (1.0) [10]: 0.75 ± 0.04
12 | O=C(C(c1ccccc1)N1C(=O)CCC1=O)N1CCN(c2cccc(C(F)(F)F)c2)CC1 (stereo not drawn) [I] | – | – | – | – | – | – | – | – | – | ED50 scPTZ (mice [7]): 59.4 (37.5–94.1) mg/kg; ED50 6 Hz (32 mA) (mice [8]): 22.4 (17.4–28.8) mg/kg; ED50 MES (mice [9]): 23.7 (18.4–31.2) mg/kg; TD50 (rotarod test) (mice [11]; Table 2): 195.7 (132.7–288.6) mg/kg; TD50 (rotarod test) (mice [11]): 195.7 (132.7–288.6) mg/kg; ED50 6 Hz (44 mA) (mice [12]): 73.2 (57.4–93.4) mg/kg
13 | COC[C@@H](NC(C)=O)C(=O)NCc1ccccc1 [LCS, lacosamide] | – | – | – | – | – | – | – | – | – | ED50 6 Hz (44 mA) (mice [12]): 6.9 (5.4–8.6) mg/kg
14 | CC[C@@H](C(N)=O)N1CCCC1=O [LEV, levetiracetam, reference compound] | – | – | – | > 500 | > 500 | – | – | – | – | TD50 (rotarod test) (mice [11]; Table 2): >500 mg/kg; ED50 6 Hz (44 mA) (mice [12]): >500 mg/kg
15 | CCCC(CCC)C(=O)O [VPA, valproic acid, reference compound] | – | – | – | – | – | – | – | 239 | – | dose active in the capsaicin test (mice [13]): 200 mg/kg
